Measured values reported in paper PMC8250858, “A Systematic Study of the Stability, Safety, and Efficacy of the de novo Designed Antimicrobial Peptide PepD2 and Its Modified Derivatives Against Acinetobacter baumannii” (Frontiers in Microbiology, 2021).
In brackets after ≈: the same amount, converted by molar mass. Like-named read-outs stand apart in the source and are kept apart here. Non-standard residues stand in square brackets, D forms with d. Residues, ends and D or L forms follow the SMILES beside them. *: point of attachment. Stearoyl = CCCCCCCCCCCCCCCCCC(=O)*; Palmitoyl = CCCCCCCCCCCCCCCC(=O)*; Myristoyl = CCCCCCCCCCCCCC(=O)*; Octanoyl = CCCCCCCC(=O)*; Orn = NCCC[C@H](N)C(=O)O; Hexanoyl = CCCCCC(=O)*; Butyryl = CCCC(=O)*

Legend:
Hemolytic assay = assay type: cell-based, rat
Protocol: The blood cells were washed three times with PBS, where the volume of PBS was the same as that of the original blood, by gently turning the centrifuge tube upside down. After washing, ten microliters of blood cells were diluted 2,000-fold in PBS to count the cells. Finally, red blood cells were diluted to 5 × 10^8 cells/mL in PBS. Peptides were dissolved in water and filtered through a 0.2-μm filter to make a stock solution. The peptide concentration was quantitated by the UV280. The peptide solution was diluted in PBS to different concentrations (five times the tested concentrations). Twenty microliters of the peptide in PBS was mixed with 80 μL of red blood cell solution in a 96-well plate (V-bottom). The final peptide concentration was 16–256 μg/mL. In the positive control group, 20 μL of 5% Triton X-100 was added to the red blood cell solution for a final Triton X-100 concentration of 1%. For the negative control group, 20 μL of PBS solution was added. The 96-well plate was incubated at 37°C for 45 min. After centrifuging the 96-well plate at 1,500 × g for 5 min, 30 μL of the supernatant was mixed with 100 μL of deionized water in a 96-well plate (flat bottom). The concentration of heme in each well was measured by the UV405 using an Infinite M1000 pro (Tecan Austria GmbH, Austria). The hemolytic activity was calculated using the following formula. Hemolyticactivity=[(F-F0)/(Ft-F0)]×100% F is the UV405 of the peptide-treated sample F0 is the UV405 of the sample without peptide (negative control) Ft is the UV405 of the Triton-treated sample (positive control)

A. baumannii ATCC 17978 = assay type: cell-based, Acinetobacter baumannii
Protocol: Following CLSI guideline M07-A11, single bacterial colonies of A. baumannii ATCC 17978 grown on Müller–Hinton agar (MHA) plates were picked and inoculated in 4 mL of Müller–Hinton broth (MHB) at 37°C and shaken at 180 rpm for 4∼6 h. The bacterial broth was diluted in the same medium to give a cell density of 1∼2 × 10^8 CFU/mL (OD600 = 0.38∼0.4 for A. baumannii) (Supplementary Figure 1; [Dillon et al., 2020]). Then, the broth was diluted 20-fold. Peptides were dissolved in water and filtered through a 0.2-μm filter to make a stock solution. The peptide concentration was quantified by the UV280. Then, the peptide solution was serially diluted in MHB to final peptide concentrations of 1, 2, 4, 8, 16, and 32 μg/mL. One hundred microliters of serially diluted peptide and 10 μL of bacterial culture were mixed in a 96-well polystyrene plate. Each well contained approximately 5 × 10^5 CFU/mL. The positive control was a mixture of 100 μL of MHB and 10 μL of the bacterial culture. The negative control was 110 μL of MHB. The plates were incubated at 37°C without shaking. […] The bacterium-peptide mixtures (the mixture without visible growth and the mixture containing a two-fold […] peptide concentration than the mixture without growth), positive control, and negative control (3 μL each) were spotted on an MHA plate and incubated at 37°C for 24 h. The MBC was determined as the lowest peptide concentration at which no colonies formed.
The MIC and MBC of our designed peptides against A. baumannii were obtained by using the broth microdilution method in the CLSI protocol. The bacterial cell number was carefully counted, and a final cell density of 5 × 10^5 CFU/mL in each well was used in the MIC test (Supplementary Figure 1). The minimal peptide concentration at which no bacterial growth was observed was taken as the MIC value. The culture after peptide treatment was spotted on an MHA plate, and the peptide concentration that could kill all the bacteria was defined as the MBC. The MIC/MBC and hemolytic activity of these peptides are shown and compared in Figure 1.

HEK293 cells = assay type: cell-based, human
Protocol: Cell viability assays were performed by using the CellTiter 96® AQueous Non-Radioactive Cell Proliferation Assay (Promega, United States), in which 3-(4,5-dimethylthiazol-2-yl)-5-(3-carboxymethoxyphenyl)-2-(4-sulfophenyl)-2H-tetrazolium salt (MTS) can be reduced to purple-colored formazan by intact cells. […] The test peptide was dissolved in water and filtered through a 0.2-μm filter. The peptide concentration was quantitated by the UV280 to make a 5,120 μg/mL stock solution and then serially diluted in serum-free DMEM. On the second day, the medium was replaced with 100 μL of serum-free DMEM containing different peptide concentrations and incubated for 1 or 24 h. Serum-free DMEM without peptide was used as a negative control and medium containing 1% Triton X-100 was used as a positive control. One milligram of MTS powder was dissolved in 0.5 mL of Dulbecco’s phosphate-buffered saline (DPBS). The MTS solution was mixed with one-twentieth of a phenazine methosulfate (PMS) solution ([…]). To each well, 20 μL of the MTS/PMS solution was added. After 3 h, the absorbance was measured with an Infinite M1000 pro (Tecan Austria GmbH, Austria) at a wavelength of 490 nm. Cell viability was calculated using the following equation. Cellviability=[(A-Ap)/(An-Ap)]×100% A is the UV490 of the peptide-treated sample An is the UV490 of the sample without peptide (negative control) Ap is the UV490 of the Triton-treated sample (positive control)

in vitro = in vitro ADME, rat; conditions: for half-life at 0.6 mg/mL: rat plasma, room temperature
Protocol: EDTA-treated rat whole blood was centrifuged at 4°C and 840 × g for 5 min, and then the blood cells were removed ([[…] et al., 2019]). The supernatant was placed in an Eppendorf tube and centrifuged at 4°C and 13,000 rpm for 10 min to remove lipids (white precipitate). The supernatant was filtered through a 0.2-μm filter. The peptide was dissolved in water and filtered through a 0.2-μm filter. The peptide concentration was quantified by the UV280 to make a 1 mg/mL stock solution. […] At the indicated time, the peptide was analyzed by HPLC with a C18 column using a linear gradient of 20-65% B over 15 min. Solution A: 5% acetonitrile plus 0.1% trifluoroacetic acid in water; solution B: 0.1% trifluoroacetic acid in acetonitrile.

A. baumannii 19606 = test system: A. baumannii 19606; design: method as in Feng et al., 2013; conditions: ref Feng et al., 2013; cited from earlier work
A. baumannii = test system: A. baumannii; design: method as in Sato et al., 2018; conditions: ref Sato et al., 2018; cited from earlier work
[1] = rat red blood cells, 256 μg/mL peptide, 37°C 45 min, read-out: Hemolysis (%) at 256 μg/mL

| Compound | hemolysis at 45 min, 256 μg/mL (Hemolytic assay; rat) [%] | MBC A. baumannii 17978 (A. baumannii ATCC 17978; ATCC 17978, 24 h) | other results |
| --- | --- | --- | --- |
| CCCCCCCCCCCCCC(=O)N[C@@H](Cc1c[nH]c2ccccc12)C(=O)N[C@@H](CCCCN)C(=O)N[C@@H](CCCCN)C(=O)N[C@@H](CC(C)C)C(=O)N[C@@H](CCCCN)C(=O)N[C@@H](CCCCN)C(=O)N[C@@H](CC(C)C)C(=O)N[C@@H](CC(C)C)C(=O)N[C@@H](CCCCN)C(=O)N[C@@H](CCCCN)C(=O)N[C@@H](CC(C)C)C(=O)N[C@@H](CCCCN)C(=O)N[C@@H](CCCCN)C(=O)N[C@@H](CC(C)C)C(N)=O [pepD2M] (Myristoyl-WKKLKKLLKKLKKL-NH2) | 93.6 | – | – |
| CCCCCCCCCCCCCCCC(=O)N[C@@H](Cc1c[nH]c2ccccc12)C(=O)N[C@@H](CCCCN)C(=O)N[C@@H](CCCCN)C(=O)N[C@@H](CC(C)C)C(=O)N[C@@H](CCCCN)C(=O)N[C@@H](CCCCN)C(=O)N[C@@H](CC(C)C)C(=O)N[C@@H](CC(C)C)C(=O)N[C@@H](CCCCN)C(=O)N[C@@H](CCCCN)C(=O)N[C@@H](CC(C)C)C(=O)N[C@@H](CCCCN)C(=O)N[C@@H](CCCCN)C(=O)N[C@@H](CC(C)C)C(N)=O [pepD2P] (Palmitoyl-WKKLKKLLKKLKKL-NH2) | 83.5 | – | – |
| CCCCCCCCCCCCCCCCCC(=O)N[C@@H](Cc1c[nH]c2ccccc12)C(=O)N[C@@H](CCCCN)C(=O)N[C@@H](CCCCN)C(=O)N[C@@H](CC(C)C)C(=O)N[C@@H](CCCCN)C(=O)N[C@@H](CCCCN)C(=O)N[C@@H](CC(C)C)C(=O)N[C@@H](CC(C)C)C(=O)N[C@@H](CCCCN)C(=O)N[C@@H](CCCCN)C(=O)N[C@@H](CC(C)C)C(=O)N[C@@H](CCCCN)C(=O)N[C@@H](CCCCN)C(=O)N[C@@H](CC(C)C)C(N)=O [pepD2S] (Stearoyl-WKKLKKLLKKLKKL-NH2) | 60.7 | – | – |
| CCCC(=O)N[C@@H](Cc1c[nH]c2ccccc12)C(=O)N[C@@H](CCCCN)C(=O)N[C@@H](CCCCN)C(=O)N[C@@H](CC(C)C)C(=O)N[C@@H](CCCCN)C(=O)N[C@@H](CCCCN)C(=O)N[C@@H](CC(C)C)C(=O)N[C@@H](CC(C)C)C(=O)N[C@@H](CCCCN)C(=O)N[C@@H](CCCCN)C(=O)N[C@@H](CC(C)C)C(N)=O [pepD3B] (Butyryl-WKKLKKLLKKL-NH2) | 7.89 | 8 µg/mL (≈ 5.35 µM) | – |
| CCCCCC(=O)N[C@@H](Cc1c[nH]c2ccccc12)C(=O)N[C@@H](CCCCN)C(=O)N[C@@H](CCCCN)C(=O)N[C@@H](CC(C)C)C(=O)N[C@@H](CCCCN)C(=O)N[C@@H](CCCCN)C(=O)N[C@@H](CC(C)C)C(=O)N[C@@H](CC(C)C)C(=O)N[C@@H](CCCCN)C(=O)N[C@@H](CCCCN)C(=O)N[C@@H](CC(C)C)C(N)=O [pepD3H] (Hexanoyl-WKKLKKLLKKL-NH2) | 54.1 | 8 µg/mL (≈ 5.25 µM) | – |
| CCCCCCCC(=O)N[C@@H](Cc1c[nH]c2ccccc12)C(=O)N[C@@H](CCCCN)C(=O)N[C@@H](CCCCN)C(=O)N[C@@H](CC(C)C)C(=O)N[C@@H](CCCCN)C(=O)N[C@@H](CCCCN)C(=O)N[C@@H](CC(C)C)C(=O)N[C@@H](CC(C)C)C(=O)N[C@@H](CCCCN)C(=O)N[C@@H](CCCCN)C(=O)N[C@@H](CC(C)C)C(N)=O [pepD3O] (Octanoyl-WKKLKKLLKKL-NH2) | 86 | 8 µg/mL (≈ 5.16 µM) | – |
| CC(=O)N[C@@H](Cc1c[nH]c2ccccc12)C(=O)N[C@@H](CCCN)C(=O)N[C@@H](CCCN)C(=O)N[C@@H](CC(C)C)C(=O)N[C@@H](CCCN)C(=O)N[C@@H](CCCN)C(=O)N[C@@H](CC(C)C)C(=O)N[C@@H](CC(C)C)C(=O)N[C@@H](CCCN)C(=O)N[C@@H](CCCN)C(=O)N[C@@H](CC(C)C)C(=O)N[C@@H](CCCN)C(=O)N[C@@H](CCCN)C(=O)N[C@@H](CC(C)C)C(N)=O [pepO2, Ac-WOOLOOLLOOLOOL-NH2] (Ac-W[Orn][Orn]L[Orn][Orn]LL[Orn][Orn]L[Orn][Orn]L-NH2) | 0.23 | 8 µg/mL (≈ 4.64 µM) | – |
| CC(=O)N[C@@H](Cc1c[nH]c2ccccc12)C(=O)N[C@H](CCCCN)C(=O)N[C@H](CCCCN)C(=O)N[C@H](CC(C)C)C(=O)N[C@H](CCCCN)C(=O)N[C@H](CCCCN)C(=O)N[C@H](CC(C)C)C(=O)N[C@H](CC(C)C)C(=O)N[C@H](CCCCN)C(=O)N[C@H](CCCCN)C(=O)N[C@H](CC(C)C)C(=O)N[C@H](CCCCN)C(=O)N[C@H](CCCCN)C(=O)N[C@H](CC(C)C)C(N)=O [pepdD2, Ac-Wkklkkllkklkkl-NH2] (Ac-W[dK][dK][dL][dK][dK][dL][dL][dK][dK][dL][dK][dK][dL]-NH2) | – | 8 µg/mL (≈ 4.36 µM) | HEK293 IC50 (HEK293 cells; 1 h): 40.2 µg/mL; HEK293 IC50 (HEK293 cells; 24 h): 20.6 µg/mL; Extension of peptide half-life in plasma (in vitro): more than 12 fold; remaining at 72 h, 0.6 mg/mL (in vitro; rat, plasma): ~90%; half-life at 0.6 mg/mL (in vitro; rat, plasma): 290 h; hemolysis at 45 min, 256 μg/mL (Hemolytic assay; [1]): 2.9% |
| Ac-WKKLKKLLKKL-NH2 [pepD3] | – | 8 µg/mL | HEK293 IC50 (HEK293 cells; 1 h): 49.5 µg/mL; HEK293 IC50 (HEK293 cells; 24 h): 68.1 µg/mL; half-life at 0.6 mg/mL (in vitro; rat, plasma): 19.1 h; hemolysis at 45 min, 256 μg/mL (Hemolytic assay; [1]): 3.15% |
| Ac-WKKLKKLLKKLKKL-NH2 [pepD2] | – | 8/8 μg/mL | MIC A. baumannii 17978 (A. baumannii ATCC 17978; MHB, 20 h, 5 × 10^5 CFU/mL): 8 µg/mL; MBC A. baumannii 17978 (A. baumannii ATCC 17978; spotted on MHA plate, 24 h): 8 µg/mL; HEK293 IC50 (HEK293 cells; 1 h): 29.1 µg/mL; HEK293 IC50 (HEK293 cells; 24 h): 37.3 µg/mL; half-life at 0.6 mg/mL (in vitro; rat, plasma): 23.1 h; hemolysis at 45 min, 256 μg/mL (Hemolytic assay; [1]): 9.6% |
| Ac-WKKVKKVVKKVKKV-NH2 [pepV2] | 0.31 | 32 µg/mL | – |
| Ac-WRRLRRLLRRLRRL-NH2 [pepR2] | 106 | 8 µg/mL | – |
| LL-37: natural human antimicrobial peptide | – | – | MIC against A. baumannii 19606 (A. baumannii 19606): 16 µg/mL |
| colistin sulfate | – | – | MIC against A. baumannii (A. baumannii): 2 µg/mL |
